Laboratory results as given in patent publication US20240190862A1 (AMGEN INC., priority 2019, published 2024).
pIC50: −log10 of the molar value. Read-outs that look alike come from different tables or passages of the source.

Experiments:
[1] = target: GDP-bound KRAS protein (aa 1-169) G12D/C118A (Homo sapiens (Human), UniProt P01116, C118A/G12D); assay: Coupled Nucleotide Exchange Assay (KRAS G12D); assay type: biochemical
Experimental: (§1) Coupled Nucleotide Exchange Assay: Purified GDP-bound KRAS protein (aa 1-169), containing either G12C or G12D, as well as C118A amino acid substitutions and an N-terminal His-tag, was pre-incubated in assay buffer (25 mM HEPES pH 7.4, 10 mM MgCl2, and 0.01% Triton X-100) with a compound dose-response titration for either 5 min or 20 hours (see Table 15). Following compound pre-incubation, purified SOS protein (aa 564-1049) and GTP (Roche 10106399001) were added to the assay wells and incubated for an additional 30 min. To determine the extent of inhibition of SOS-mediated nucleotide exchange, purified GST-tagged cRAF (aa 1-149), nickel chelate AlphaLISA acceptor beads (PerkinElmer AL108R), and AlphaScreen glutathione donor beads (PerkinElmer 6765302) were added to the assay wells and incubated for 10 minutes. The assay plates were then read on a PerkinElmer EnVision Multilabel Reader, using AlphaScreen® technology, and data were analyzed using a 4-parameter logistic model to calculate IC50 values.

[2] = target: GDP-bound KRAS protein (aa 1-169) G12C/C118A (Homo sapiens (Human), UniProt P01116, C118A/G12C); assay: Coupled Nucleotide Exchange Assay (KRAS G12C); assay type: biochemical
Experimental: as §1

[3] = 20 h compound pre-incubation, read-out: GDP KRAS G12D 20 h Coupled Exchange IC50 IP
[4] = 5 min compound pre-incubation, read-out: GDP KRAS G12C 5 min Coupled Exchange IC50 IP
[5] = 20 h compound pre-incubation, read-out: GDP KRAS G12C 20 h Coupled Exchange IC50 IP

Chain of GDP-bound KRAS protein (aa 1-169) G12D/C118A (P01116 other isoform, or with tags, fused parts or gaps G12D/C118A): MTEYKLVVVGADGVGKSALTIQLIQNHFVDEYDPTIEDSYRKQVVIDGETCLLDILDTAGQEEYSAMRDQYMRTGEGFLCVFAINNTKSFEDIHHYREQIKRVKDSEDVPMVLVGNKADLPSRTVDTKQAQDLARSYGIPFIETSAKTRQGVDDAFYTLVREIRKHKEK
Chain of GDP-bound KRAS protein (aa 1-169) G12C/C118A (P01116 other isoform, or with tags, fused parts or gaps G12C/C118A): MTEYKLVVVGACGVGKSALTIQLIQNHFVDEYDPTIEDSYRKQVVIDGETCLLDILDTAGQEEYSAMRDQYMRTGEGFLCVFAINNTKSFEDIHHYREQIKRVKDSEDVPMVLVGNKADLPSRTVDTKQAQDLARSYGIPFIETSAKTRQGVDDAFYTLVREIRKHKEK

SMILES | pIC50 [1, 3] | pIC50 [2, 4] | pIC50 [2, 5] | pIC50 [1] | pIC50 ([2]; GDP KRAS G12C 5 min Coupled Exchange IC50 IP, 5 min compound pre-incubation) | pIC50 ([2]; GDP KRAS G12C 20 h Coupled Exchange IC50 IP, 20 h compound pre-incubation)
Cc1ccnc(C(C)C)c1-n1c(=O)nc(N2CCN(C(=O)[C@H]3CN3)C[C@@H]2C)c2cc(Cl)c(-c3ccccc3F)nc21 [Example 14, 4-((S)-4-((R)-Aziridine-2-carbonyl)-2-methylpiperazin-1-yl)-6-chloro-7-(2-fluorophenyl)-1-(2-isopropyl-4-methylpyridin-3-yl)pyrido[2,3-d]pyrimidin-2(1H)-one] | < 3.60 | 4.05 | 5.81 | – | – | –
Cc1ccnc(C(C)C)c1-n1c(=O)nc(N2CCN(C(=O)COc3c(F)cc(F)cc3F)C[C@@H]2C)c2cc(Cl)c(-c3ccccc3F)nc21 [Example 11, (S)-6-Chloro-7-(2-fluorophenyl)-1-(2-isopropyl-4-methylpyridin-3-yl)-4-(2-methyl-4-(2-(2,4,6-trifluorophenoxy)acetyl)piperazin-1-yl)pyrido[2,3-d]pyrimidin-2(1H)-one] | < 3.60 | 4.16 | 5.26 | – | – | –
Cc1ccnc(C(C)C)c1-n1c(=O)nc(N2CCN(C(=O)[C@@H]3O[C@H]3CN3CCCCC3)C[C@@H]2C)c2cc(Cl)c(-c3ccccc3F)nc21 [Example 21, 6-Chloro-7-(2-fluorophenyl)-1-(2-isopropyl-4-methylpyridin-3-yl)-4-((S)-2-methyl-4-((2R,3S)-3-(piperidin-1-ylmethyl)oxirane-2-carbonyl)piperazin-1-yl)pyrido[2,3-d]pyrimidin-2(1H)-one] | < 3.60 | 5.95 | 8.30 | – | – | –
Cc1ccnc(C(C)C)c1-n1c(=O)nc(N2CC(NC(=O)C3CO3)C2)c2cc(Cl)c(-c3ccccc3F)nc21 (stereo not shown) [Example 27] | < 3.60 | 5.36 | 7.74 | – | – | –
Cc1ccnc(C(C)C)c1-n1c(=O)nc(N2CCN(C(=O)C3CO3)[C@@H](CC#N)C2)c2cc(Cl)c(-c3ccccc3F)nc21 (stereo partly drawn) [Example 23, 2-((2S)-4-(6-Chloro-7-(2-fluorophenyl)-1-(2-isopropyl-4-methylpyridin-3-yl)-2-oxo-1,2-dihydropyrido[2,3-d]pyrimidin-4-yl)-1-(oxirane-2-carbonyl)piperazin-2-yl)acetonitrile] | < 3.60 | < 3.60 | 6.37 | – | – | –
Cc1ccnc(C(C)C)c1-n1c(=O)nc(N2CCN(C(=O)COc3ccccc3)C[C@@H]2C)c2cc(Cl)c(-c3ccccc3F)nc21 [Example 6, (S)-6-Chloro-7-(2-fluorophenyl)-1-(2-isopropyl-4-methylpyridin-3-yl)-4-(2-methyl-4-(2-phenoxyacetyl)piperazin-1-yl)pyrido[2,3-d]pyrimidin-2(1H)-one] | < 3.60 | < 3.60 | 3.88 | – | – | –
Cc1ccnc(C(C)C)c1-n1c(=O)nc(N2CCN(C(=O)[C@@H]3O[C@H]3C(=O)O)C[C@@H]2C)c2cc(Cl)c(-c3ccccc3F)nc21 [Example 20, (2R,3R)-3-((S)-4-(6-chloro-7-(2-fluorophenyl)-1-(2-isopropyl-4-methylpyridin-3-yl)-2-oxo-1,2-dihydropyrido[2,3-d]pyrimidin-4-yl)-3-methylpiperazine-1-carbonyl)oxirane-2-carboxylic acid] | < 3.60 | – | 6.00 | – | – | –
Cc1ccnc(C(C)C)c1-n1c(=O)nc(N2CCN(C(=O)COc3cccc(F)c3F)C[C@@H]2C)c2cc(Cl)c(-c3ccccc3F)nc21 [Example 12, (S)-6-Chloro-7-(2-fluorophenyl)-1-(2-isopropyl-4-methylpyridin-3-yl)-4-(2-methyl-4-(2-(2,3-difluorophenoxy)acetyl)piperazin-1-yl)pyrido[2,3-d]pyrimidin-2(1H)-one] | < 3.60 | 4.45 | 5.69 | – | – | –
Cc1ccnc(C(C)C)c1-n1c(=O)nc(N2CCN(C(=O)COc3c(F)c(F)cc(F)c3F)C[C@@H]2C)c2cc(Cl)c(-c3ccccc3F)nc21 [Example 9, (S)-6-chloro-7-(2-fluorophenyl)-1-(2-isopropyl-4-methylpyridin-3-yl)-4-(2-methyl-4-(2-(2,3,5,6-tetrafluorophenoxy)acetyl)piperazin-1-yl)pyrido[2,3-d]pyrimidin-2(1H)-one] | < 3.60 | 4.47 | 5.61 | – | – | –
Cc1ccnc(C(C)C)c1-n1c(=O)nc(N2CC3(CN(C(=O)C4CO4)C3)C2)c2cc(Cl)c(-c3ccccc3F)nc21 (stereo not shown) [Example 24, 6-Chloro-7-(2-fluorophenyl)-1-(2-isopropyl-4-methylpyridin-3-yl)-4-(6-(oxirane-2-carbonyl)-2,6-diazaspiro[3.3]heptan-2-yl)pyrido[2,3-d]pyrimidin-2(1H)-one] | < 3.60 | 3.65 | 4.38 | – | – | –
Cc1ccnc(C(C)C)c1-n1c(=O)nc(N2CCN(C(=O)CF)C[C@@H]2C)c2cc(Cl)c(-c3ccccc3F)nc21 [Example 2, (S)-6-Chloro-4-(4-(2-fluoroacetyl)-2-methylpiperazin-1-yl)-7-(2-fluorophenyl)-1-(2-isopropyl-4-methylpyridin-3-yl)pyrido[2,3-d]pyrimidin-2(1H)-one] | – | – | – | < 3.60 | < 3.60 | 4.87
Cc1ccnc(C(C)C)c1-n1c(=O)nc(N2CCN(C(=O)CCl)C[C@@H]2C)c2cc(Cl)c(-c3ccccc3F)nc21 [Example 1, (S)-6-Chloro-4-(4-(2-chloroacetyl)-2-methylpiperazin-1-yl)-7-(2-fluorophenyl)-1-(2-isopropyl-4-methylpyridin-3-yl)pyrido[2,3-d]pyrimidin-2(1H)-one] | < 3.60 | 5.89 | 7.59 | – | – | –
Cc1ccnc(C(C)C)c1-n1c(=O)nc(N2CCC3(CC2)CN(C(=O)[C@H]2CO2)C3)c2cc(Cl)c(-c3ccccc3F)nc21 [Example 25, (R)-6-chloro-7-(2-fluorophenyl)-1-(2-isopropyl-4-methylpyridin-3-yl)-4-(2-(oxirane-2-carbonyl)-2,7-diazaspiro[3.5]nonan-7-yl)pyrido[2,3-d]pyrimidin-2(1H)-one] | < 3.60 | – | 5.15 | – | – | –
Cc1ccnc(C(C)C)c1-n1c(=O)nc(N(C)C2CN(C(=O)C3CO3)C2)c2cc(Cl)c(-c3ccccc3F)nc21 (stereo not shown) [Example 29] | < 3.60 | 4.86 | 6.64 | – | – | –
Cc1ccnc(C(C)C)c1-n1c(=O)nc(N2CCN(C(=O)[C@@H]3CO3)C[C@@H]2C)c2cc(Cl)c(-c3ccccc3F)nc21 [Example 15, 6-Chloro-7-(2-fluorophenyl)-1-(2-isopropyl-4-methylpyridin-3-yl)-4-((S)-2-methyl-4-((S)-oxirane-2-carbonyl)piperazin-1-yl)pyrido[2,3-d]pyrimidin-2(1H)-one] | < 3.60 | 4.13 | 6.08 | – | – | –
Cc1ccnc(C(C)C)c1-n1c(=O)nc(N2CC[C@@H](NC(=O)C3CO3)C2)c2cc(Cl)c(-c3ccccc3F)nc21 (stereo partly drawn) [Example 26, N—((R)-1-(6-Chloro-7-(2-fluorophenyl)-1-(2-isopropyl-4-methylpyridin-3-yl)-2-oxo-1,2-dihydropyrido[2,3-d]pyrimidin-4-yl)pyrrolidin-3-yl)oxirane-2-carboxamide] | < 3.60 | 3.71 | 5.52 | – | – | –
Cc1ccnc(C(C)C)c1-n1c(=O)nc(N2CCC3C2CN3C(=O)C2CO2)c2cc(Cl)c(-c3ccccc3F)nc21 (stereo not shown) [Example 28, 6-Chloro-7-(2-fluorophenyl)-1-(2-isopropyl-4-methylpyridin-3-yl)-4-(6-(oxirane-2-carbonyl)-2,6-diazabicyclo[3.2.0]heptan-2-yl)pyrido[2,3-d]pyrimidin-2(1H)-one] | < 3.60 | 3.71 | 6.19 | – | – | –
Cc1ccnc(C(C)C)c1-n1c(=O)nc(N2CCN(C(=O)[C@H]3O[C@@H]3C)C[C@@H]2C)c2cc(Cl)c(-c3ccccc3F)nc21 (mixture of isomers) [Example 17, 6-Chloro-7-(2-fluorophenyl)-1-(2-isopropyl-4-methylpyridin-3-yl)-4-((S)-2-methyl-4-((2R,3S)-3-methyloxirane-2-carbonyl)piperazin-1-yl)pyrido[2,3-d]pyrimidin-2(1H)-one and 6-chloro-7-(2-fluorophenyl)-1-(2-isopropyl-4-methylpyridin-3-yl)-4-((S)-2-methyl-4-((2S,3R)-3-methyloxirane-2-carbonyl)piperazin-1-yl)pyrido[2,3-d]pyrimidin-2(1H)-one] | < 3.60 | 4.75 | 7.02 | – | – | –
CCOC(=O)[C@H]1O[C@@H]1C(=O)N1CCN(c2nc(=O)n(-c3c(C)ccnc3C(C)C)c3nc(-c4ccccc4F)c(Cl)cc23)[C@@H](C)C1 [Example 18, Ethyl (2S,3S)-3-((S)-4-(6-chloro-7-(2-fluorophenyl)-1-(2-isopropyl-4-methylpyridin-3-yl)-2-oxo-1,2-dihydropyrido[2,3-d]pyrimidin-4-yl)-3-methylpiperazine-1-carbonyl)oxirane-2-carboxylate] | < 3.60 | 4.62 | 6.28 | – | – | –
